This data set can be described thus: gradient 5% acetonitrile 3 min, to 50% in 2 min, to 85% in 15 min, held 3 min, 100 µL/min. As to conditions: column: Zorbax Extend-C18 2.1 x 50 mm; eluents: water / acetonitrile, 0.1% formic acid. Put shortly:
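Over 3 months, pure standards in mixtures of ~100 molecules were run by HPLC coupled to a quadrupole time-of-flight mass spectrometer in positive and negative ionization mode. The column was a Zorbax Extend-C18 (2.1 × 50 mm, 1.8 μm) at 100 μL/min, eluted with water and acetonitrile each holding 0.1% formic acid, with 40 μL dead and 900 μL dwell volumes. Retention time was determined from adduct peaks chosen by software and checked manually.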
`O=C(O)CC1CCCN(c2cn[nH]c(=O)c2)C1` (stereo not given) came in with an RP-LC retention time of 570 s.
For `CCCN1C(=O)CN(S(=O)(=O)c2ccc(C)cc2)CC1(C)C(=O)NCc1ccccc1` (stereo not given), the RP-LC retention time was 864 s.
As for `CCn1cc(S(=O)(=O)Nc2ccc(F)c(F)c2)c2cccnc21`, the figure is 848 s.
As for `Cc1cc2c(c(=O)n1Cc1ccccc1)C(C(C)C)C(C#N)=C(N)O2` (stereo not given), the figure is 769 s; as for `CC(C)CC(=O)N1CCC(Cc2nnc(-c3ccccc3)o2)CC1`, 818 s.
As for `Cc1cc(Nc2ncccc2S(N)(=O)=O)ccc1Cl`, the figure is 908 s.
Compound `Cc1ccn2cc(-c3ccc(NS(=O)(=O)c4ccc(Cl)c(Cl)c4)cc3)nc2n1` displayed an RP-LC retention time of 743 s.
As for `COCCN1C(=O)CCc2cc(NC(=O)c3ccccc3Br)ccc21`, the figure is 746 s; as for `C[C@@H](c1ncncc1F)[C@@](O)(Cn1cncn1)c1ccc(F)cc1F`, 870 s.
As for `COc1ccc(CN2CCN(C(=O)CCc3c(C)noc3C)CC2)cn1`, the figure is 646 s; as for `O=C(Cc1c(F)cccc1Cl)NCC(=O)N1CCN(c2ccccn2)CC1`, 605 s.
As for `Cc1cc(C)c(S(=O)(=O)N2CCCCC2)c(C)c1N(C)S(=O)(=O)c1ccccc1`, the figure is 1060 s; as for `Cn1ccc2c(cc(C(=O)NCc3ccccc3F)n2C)c1=O`, 678 s.
With `O=C(CC1CCCC1)Nc1nc(-c2cccc3ccccc23)cs1`, the RP-LC retention time is 1220 s.
As for `CCOC(=O)c1ccccc1NC(=O)N(Cc1cccs1)C1CCN(CC)CC1`, the figure is 756 s; as for `O=c1c(=O)n(-c2ccc(Cl)cc2)ccn1Cc1nc(-c2ccccc2)no1`, 860 s.
In turn, `O=C(Nc1cccc(-c2ccc(N3CCOCC3)nn2)c1)Nc1ccc(F)c(Cl)c1` registered an RP-LC retention time of 770 s.
As for `CC(C)CCNC(=O)c1ccc2ncnc(N3CCCC3)c2c1`, the figure is 635 s; as for `CC1CCN(CCNC(=O)c2nnc(-c3ccc(S(=O)(=O)N4CCCC4)cc3)o2)CC1`, 634 s.
As for `COC(=O)c1ccc2c(=O)n(-c3ccc4c(c3)OCO4)c(N3CCOCC3)nc2c1`, the figure is 875 s; as for `CC(Oc1cccc(Cl)c1)C(=O)N1CCN(c2cc(-c3cccs3)[nH]n2)CC1` (stereo not given), 888 s; as for `CSc1ncc(C(=O)N2CCN(c3ccccn3)CC2)c(-c2ccccc2)n1`, 837 s.
As for `Cc1nccn1C1CN(C(=O)c2ccc3cc[nH]c3c2)C1`, the figure is 582 s; as for `O=C(CCC1CCN(c2cc(NC3CC3)ncn2)CC1)NCc1cccs1`, 633 s.
`Cn1c(=O)c2ccn(CC(=O)N3CCN(c4ccc(Cl)cc4)CC3)c2n(C)c1=O` gave an RP-LC retention time of 752 s.
`C=C[C@H]1CN2CC[C@H]1C[C@@H]2[C@@H](O)c1ccnc2ccc(OC)cc12` gave an RP-LC retention time of 616 s.
`COc1ccc(-c2noc(-c3nnn4c3COC(c3ccc(Cl)cc3)C4)n2)cc1F` (stereo not given): the RP-LC retention time is 1230 s.
As for `COc1ccc2c(c1)C1(CCN(C(=O)c3ccccc3OC)C1)C(=O)N2` (stereo not given), the figure is 709 s; as for `Cn1cc(C2=CCN(S(=O)(=O)Cc3ccccc3)CC2)c2cccnc21`, 898 s; as for `CCNC(=O)NCCc1cn(C)c2ncccc12`, 556 s.
As for `Cc1nc(-c2cccnc2)n2c(=O)n(CCc3ccccc3)nc2c1C`, the figure is 786 s; as for `O=C(Nc1nc(-c2ccc(F)cc2)cs1)c1c(-c2ccc(F)cc2)nc2n1CCS2(=O)=O`, 1050 s; as for `Cc1cccc(CNC(=O)CN2C(=O)C3CCCCN3c3ccc(S(=O)(=O)N(C)C)cc32)c1` (stereo not given), 932 s.
As for `CC(=O)N1c2ccc(S(=O)(=O)N3CCC(C(=O)Nc4cccc(Cl)c4C)CC3)cc2CC1C` (stereo not given), the figure is 895 s; as for `CCOC(=O)c1c(C)n(C)c2ccc(OCC(O)CN3CCOCC3)cc12` (stereo not given), 630 s.
The compound `Cc1nc(-c2cccnc2)nc2c1CCC(=O)N2Cc1cccnc1` gave an RP-LC retention time of 560 s.
As for `CC[C@H](C)NC(=O)Cc1nnc(-c2cccc(C)c2)o1`, the figure is 767 s.
`CCOC(=O)Nc1ccc2nc(-c3cscn3)[nH]c2c1` yielded an RP-LC retention time of 651 s.
In turn, `Cc1ccccc1CNC1=NCCNC12CCN(S(=O)(=O)c1ccc(Cl)cc1)CC2` displayed an RP-LC retention time of 753 s.
In turn, `COc1ccc(CNC(=O)NCc2cccnc2OC)cc1` displayed an RP-LC retention time of 691 s.
As for `O=C(Cn1c(=O)c2cc(-c3cccs3)nn2c2ncccc21)Nc1ccccc1F`, the figure is 839 s; as for `Cc1cc(C)c2c(N3CCSCC3)nc(C(=O)NCCCN3CCCC3)nc2n1`, 552 s.
As for `CCCn1c(C)cnc1C1CCN(S(=O)(=O)c2ccc3c(c2)CCC3)C1` (stereo not given), the figure is 564 s; as for `O=C(NCC1CC1)C1CCN(c2nc3ccsc3c(=O)n2Cc2ccccc2)CC1`, 814 s.
As for `Cn1c(=O)c2c(ncn2CC(=O)Nc2cccc(N3CCCS3(=O)=O)c2)n(C)c1=O`, the figure is 595 s.
Take `CC(C)c1nc(-c2ccc(C(=O)N3CCN(c4nc5cccnc5o4)CC3)cc2)no1`: the RP-LC retention time is 828 s.
As for `Cc1cc(C)cc(Oc2nccn3c(=O)n(CC(=O)NC(C)(C)C)nc23)c1`, the figure is 859 s; as for `CCc1nc2ccccc2c(=O)n1Cc1noc(C2CC(=O)N(c3ccc(C)c(C)c3)C2)n1` (stereo not given), 927 s.
As for `CCOC(=O)Cn1nc2ccc(S(=O)(=O)N3CCSCC3)cn2c1=O`, the RP-LC retention time stood at 765 s.
As for `CSc1cccc(NC(=O)c2cccn2Cc2noc(C)n2)c1`, the figure is 899 s; as for `Cc1ccc(CNC(=O)CCc2c(-c3ccc(Br)cc3)nc3ccccn23)cc1`, 709 s.
As for `O=C(Nc1ccccc1C(=O)NCCC1=CCCCC1)C1=CSCCO1`, the figure is 1090 s; as for `O=C(Cc1cccs1)N1CCc2c([nH]c3ccccc23)C1c1ccccc1` (stereo not given), 1130 s.
As for `COc1cc(-c2noc(Cn3ncn4nc(-c5ccc(C)cc5C)cc4c3=O)n2)cc(OC)c1OC`, the figure is 1130 s.
Turning to `N#Cc1c(N)nc(SCC(=O)c2ccc(Br)cc2)c(C#N)c1-c1ccccc1`, the RP-LC retention time is 997 s.
As for `O=C(c1cn(-c2cc(N3CCSCC3)ncn2)cn1)N1CCc2ccccc21`, the figure is 952 s; as for `Cc1sc2ccn(C)c(=O)c2c1C(=O)Nc1ccccc1`, 818 s; as for `O=c1c2ccccc2n(Cc2nc(-c3ccccc3)no2)c(=O)n1CC1CCCO1` (stereo not given), 978 s.
As for `CCc1ccc(NS(=O)(=O)c2cc(-c3ccn[nH]3)sc2C)cc1`, the figure is 854 s.
As for `CCOC(=O)Cn1c(CNC(=O)c2ccco2)nc2ccccc21`, the figure is 618 s.
Regarding `CSc1ccc(-c2nc3ccc(C)cn3c2Nc2ccc3c(c2)OCO3)cc1`, the RP-LC retention time stood at 739 s.
Take `CCSc1nnc(-c2nn(C)c3c2CN(S(=O)(=O)c2ccc(CC)cc2)CC3)n1CC`: the RP-LC retention time was determined as 1030 s.
As for `Cc1ccc(NS(=O)(=O)c2cc3n(c2)CCN(CC(C)C)C3=O)cc1C`, the figure is 846 s; as for `CC1Oc2ccc(-c3csc(NC(=O)c4ccc(Cl)cc4)n3)cc2N(C)C1=O` (stereo not given), 1040 s.
In turn, `CCCN1CCN(C(=O)C2=NN(c3ccc(Cl)cc3)c3ncccc3S2(=O)=O)CC1` yielded an RP-LC retention time of 676 s.
Compound `CCn1ccc(C(=O)NCc2c(-c3ccccc3)nc3sc(C)nn23)n1` yielded an RP-LC retention time of 743 s.
Regarding `CC(C)CN1C(=O)c2cccn2CC1CNC(=O)c1cccs1` (stereo not given), the RP-LC retention time was 715 s.
As for `Cc1cc(N2CCN(C(=O)Nc3cccc(C(F)(F)F)c3)CC2)nc(N2CCCCC2)n1`, the RP-LC retention time was determined as 789 s.
As for `Cc1cc(N2CCN(C(=O)c3ccco3)CC2)n2nc(C)c(-c3ccc(Cl)cc3)c2n1`, the figure is 838 s.
As for `CCC(C)NC(=O)c1cc(=O)[nH]c2ccccc12` (stereo not given), the figure is 645 s; as for `CCc1ccc(NC(=O)N2CCCC(Cn3cnc4cccnc43)C2)cc1` (stereo not given), 733 s.
As for `CC(C)CCNC(=O)N(C)Cc1nc2cc(C(=O)NC(C)C)ccc2n1C`, the figure is 626 s.
On to `Cc1ccn2cc(-c3ccc(NC(=O)c4cccc(I)c4)cc3)nc2n1`, for which the RP-LC retention time was found to be 734 s.
As for `Cc1nn(C)c(C)c1CCN(C)C(=O)CC1=C2CCCCC2N(C(C)C)C1=O` (stereo not given), the figure is 648 s; as for `CCN(CC)c1ccc(/C=C2\SC(=O)NC2=O)cc1`, 876 s; as for `COc1cccc(N2CCN(c3ccnc(SCC(=O)Nc4ccc(Cl)cc4)n3)CC2)c1`, 805 s.
Take `CC(C)CCC(=O)N1CCN(c2nc(CN3CCC(C)CC3)cs2)CC1`: the RP-LC retention time turned out to be 671 s.
As for `Cc1csc(NC(=O)C2CCCN(c3ncnc4c3nc3n4CCCCC3)C2)n1` (stereo not given), the figure is 756 s.
As for `CCN(CC)CCN1C(=O)c2ccccc2NC1c1ccc(F)cc1` (stereo not given), the figure is 641 s.
As for `CCCc1nnc(NC(=O)c2ccc3[nH]c(C)cc(=O)c3c2)s1`, the figure is 607 s.
